Test results from patent US20100144683A1, “METHODS FOR GENERATING MAMMALIAN MODELS OF ATOPIC DISEASES, AND SCREENING FOR THEIR TREATMENT” (ASSOCIATION POUR LA RECHERCHE A L'IGBMC (ARI), priority 2006, published 2010).
Entries after “also recorded” stand apart in the source; their conditions may differ.

How the values were obtained:
cytokine RNA = test: Cytokine RNA levels (Q-PCR) in treated ears; type: in vivo, mouse; conditions: MC903 4 nmoles daily on ears; D16
serum IgE and IgG = test: Serum IgE and IgG levels (ELISA); type: in vivo, mouse; conditions: MC903 topically for 16 days on ears
TSLP [1] = test: Serum TSLP levels after topical application; type: in vivo, mouse; conditions: MC903 topical; D2-D4, undetectable at D0
Protocol: (§1) 1α,25-(OH)2D3, or MC903 and ethanol (vehicle) were applied to WT mouse right and left ears, respectively. Two shaved areas (1 cm^2 each) of dorsal skin were also treated with MC903 or ethanol.

[2] = system: OVA-induced asthma mouse model; test: Ovalbumin (OVA)-induced asthma mouse model with ear topical MC903; type: in vivo; conditions: MC903 1.125 nmole on each ear every other day, day 0 to 21, day 22
Protocol: An experimental ovalbumin (OVA)-induced asthma mouse model was used. Mice were intraperitoneally injected with 50 μg OVA adsorbed on 2 mg aluminium hydroxide (Alum) on days 0 and 7, and were then challenged on days 18, 19, 20 and 21 by intranasal instillations of 10 μg OVA. As controls, mice were intraperitoneally injected with Alum, and receive intranasal instillations of saline. These mice were topically treated with either ethanol (as a control) or MC903 (1.125 nmole) on each ear every other day from day 0 to day 21 to generate an ear AD. Assessment of respiratory function, collection of bronchoalveolar lavage (BAL) and lung were performed on day 22. […] Aerosolized saline was used as control.

eosinophils = test: Blood and tissue eosinophilia; type: in vivo, mouse; conditions: MC903-treated mice
Description: FIG. 2 s show the hematoxylin and eosin-stained sections of ear draining lymph node and liver of ethanol- and MC903-treated mice at D17. Yellow arrows point to three of many eosinophils (red cytoplasmic staining) in sections of lymph node and liver of MC903-treated mice. (Scale bars, 50 μm).

TSLP [3] = test: TSLP RNA level (Q-PCR) in skin and organs after topical application of NR agonists; type: in vivo, mouse; conditions: increasing doses (MC903: 0.4, 1 or 4 nmoles per ear)
CYP24A1 = CYP24A1 RNA level (Q-PCR) in MC903-treated ear; type: in vivo, mouse; conditions: MC903 topically every day; D2-D4
Protocol: as §1

[4] = Calcemia and overall health upon topical application; type: in vivo; conditions: MC903 4 nmoles daily or 1α,25(OH)2D3 0.25 nmole every second day on ears, 16 days
Protocol: 1α,25-(OH)2D3, or MC903 and ethanol (vehicle) were applied to WT mouse right and left ears, respectively. Two shaved areas (1 cm^2 each) of dorsal skin were also treated with MC903 or ethanol. […]

[5] = system: ears of CD1 wildtype (WT) mice; test: AD-like phenotype upon long-term ear topical treatment (appearance, histology, IHC); type: in vivo, mouse
Description: White arrows point to the dermal/epidermal junction. FIGS. 2a and b show the ear appearance at day 17 after ethanol and MC903 treatment, respectively. FIGS. 2c and d show hematoxylin and eosin-stained (HE) ear sections of ethanol- and MC903-treated mice at day 17, respectively. Eosinophil-selective cytoplasmic red staining is pointed by arrows in the inset of (d). FIG. 2 u show hematoxylin and eosin-stained (HE) ear sections of ethanol- and 1α,25(OH)2D3 treated mice every second day, at a dose of 0.25 nmole, at day 18 (D18). FIGS. 2 e to n show the result of IHC performed on ear sections from ethanol- or MC903-treated mice at D17, with antibodies against GR1 (e and f), CD3 (g and h), CD4 (i and j), CD8 (k and l) and CD11c (m and n). Yellow color corresponds to staining of antibodies, whereas blue corresponds to DAPI staining of nuclei. FIGS. 2 o and p show the Toluidin blue (TB)-staining of ear sections. Red arrows point to one of the mast cells with intense blue color in the dermis.

TSLP [6] = test: TSLP immunohistochemistry on ear and dorsal skin sections; type: in vivo, mouse; conditions: MC903-treated ear and dorsal skin; D4
Description: The white arrowhead points to autofluorescent erythrocytes, and white arrows point to the dermal/epidermal junction. (Scale bar, 50 μm).

RXR/VDR heterodimers = molecular target: T1, RXR/VDR heterodimers (Mus musculus, UniProt P48281); test: MC903 topical treatment of RXRαβep-/- mice, TSLP RNA (Q-PCR); type: in vivo; conditions: D4, versus RXRαβ CT
T1 construct: from tissue; host or cells: mouse ear skin (epidermal keratinocytes), topical treatment in vivo
T1 sequence (P48281 1-422): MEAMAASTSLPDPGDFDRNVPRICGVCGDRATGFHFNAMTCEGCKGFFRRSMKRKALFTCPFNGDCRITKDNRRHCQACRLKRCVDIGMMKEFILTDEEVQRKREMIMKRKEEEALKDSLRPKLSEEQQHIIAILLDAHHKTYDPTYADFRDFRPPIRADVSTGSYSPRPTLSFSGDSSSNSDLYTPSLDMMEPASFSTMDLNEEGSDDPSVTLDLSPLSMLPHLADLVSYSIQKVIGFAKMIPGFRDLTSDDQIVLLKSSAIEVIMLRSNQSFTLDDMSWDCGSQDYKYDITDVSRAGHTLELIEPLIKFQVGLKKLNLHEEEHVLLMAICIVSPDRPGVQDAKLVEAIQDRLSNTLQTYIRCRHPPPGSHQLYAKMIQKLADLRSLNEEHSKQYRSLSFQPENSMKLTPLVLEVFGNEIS
Description: To examine whether the effect of MC903 was transduced through RXR/VDR heterodimers, ears of RXRαβ^ep−/− mice (tamoxifen-treated K14-Cre-ERT2^(tg/0)/RXRαβ^L2/L2/RXRβ^L2/L2; LI et al., 2005, abovementioned), as well as their control littermates (RXRαβ CT), were topically-treated with MC903.

VDR = test: MC903 topical treatment of VDR control, VDRep-/- and VDR-/- mice; type: in vivo, mouse
Description: To investigate whether the MC903-induced TSLP expression and appearance of an AD-like skin inflammation were mediated through VDR, MC903 was topically applied on ears of “floxed” VDR control (CT) mice (VDR^L2/L2 mice, in which both VDR alleles bear LoxP sites) and of their VDR^ep−/− littermates [K14-Cre^(tg/0)/VDR^L2/L2 mice in which the VDR alleles are selectively ablated in keratinocytes and which were obtained by crossing)K14-Cre^(tg/0) transgenic mice (LI et al., Development, vol. 128, p: 675-688, 2001) with floxed VDR^L2/L2 mice (our unpublished data)].
The FIGS. 3 a and b show the appearance of MC903-treated ears of VDR control (CT) (a) and VDR^ep−/− mice (b) at D17. White arrows in (a) points to lesioned skin.
The FIGS. 3 c and d show Hematoxylin and eosin-stained ear sections. Yellow arrows in inset of (c) point to three of many eosinophils (red cytoplasmic staining) in MC903-treated CT skin. Black arrows point to the dermal/epidermal junction. hf, hair follicle; u, utriculi (resulting from hair follicle degeneration in VDR^ep−/− mice). (Scale bar, 50 μm).

TSLP [7] = test: TSLP RNA level (Q-PCR) in skin and organs after topical application of NR agonists; type: in vivo, mouse
Protocol: Four nmoles of ligands dissolved in ethanol were topically applied to whole ears of 6-8-week-old female CD1 wildtype (WT) mice for 4 consecutive days (D1 to D4), and TSLP RNA levels were determined on day 5.
as §1

## 26,27-cyclo-22-ene-1α,24S-dihydroxyvitamin D3 [MC903]
Cytokine RNA
  TSLP transcripts in treated ears, long-term: markedly increased
  Th2-type cytokine transcripts (IL-4, IL-5, IL-13, IL-31, IL10 and IL-6): significantly increased
  expression of Th1-type cytokine IFN-γ: enhanced
  expression of Th1-type cytokine TNF-β: unchanged
Serum IgE and IgG
  serum IgE and IgG levels: increased
TSLP [1]
  serum TSLP levels: increased
[2]; OVA model
  BAL cell numbers: higher BAL cell numbers
  airway epithelium hypertrophy (lung sections): increased hypertrophy in airway epithelium
  lung inflammatory infiltration (lung sections): higher perivascular and peribronchial lung inflammatory infiltrations; also recorded: enhanced airway inflammation
[2]; OVA sensitized and challenged
  airway hyperresponsiveness (AHR), whole-body plethysmography: increased airway hyperresponsiveness
eosinophils; D16
  eosinophils in ear-draining lymph nodes, liver and spleen: increased number of eosinophils
eosinophils; ethanol-treated mice 204±134
  blood eosinophils (differential blood cell counts): 693±220 cells/μl
TSLP [3]
  dose dependence of TSLP transcripts: dose-dependent increase
CYP24A1
  CYP24A1 transcripts in treated ear: increased
[4]
  hypercalcemia, overall health, weight loss: No hypercalcemia or overall health impairment and weight loss
[5]; MC903 4 nmoles daily or 1α,25(OH)2D3 0.25 nmole every second day, from D5, D17
  ear appearance: reddening and swelling, that worsened with time; also recorded: red, scaly, swollen and crusted
[5]; MC903 4 nmoles daily, D17, 1α,25-(OH)2D3 0.25 nmole every other day, D18
  ear histology (hematoxylin/eosin): epidermal hyperplasia and a heavy dermal cell infiltrate
[5]; MC903-treated ears, D17
  CD11c+ dermal dendritic cells (IHC): large increase
  GR1-positive cells in dermis (IHC): large number of positive cells
  T lymphocytes (CD3+) in dermis (IHC): Numerous
[5]; MC903-treated ears, D17, Toluidin blue staining
  increase of mast cells in the dermis: 4 fold
TSLP [6]
  TSLP expression by immunohistochemistry in epidermis: readily detected
RXR/VDR heterodimers
  induction of TSLP in RXRαβep-/- skin: severely reduced
VDR
  skin inflammation in VDR-/- mice: no AD-like skin inflammation
VDR; D4
  TSLP expression (Q-PCR) in skin of VDR CT mice: strongly induced
  TSLP expression (Q-PCR) in skin of VDR-/- mice: not at all
  TSLP expression (Q-PCR) in skin of VDRep-/- mutants: weakly increased
VDR; D17
  ear inflammation in VDR CT mice: AD-like inflammation was obvious
  ear inflammation in VDRep-/- mice: did not show any sign of inflammation
TSLP [7]; MC903 on shaved dorsal skin (1 cm^2), D2-D4
  TSLP RNA in treated dorsal skin: increased
TSLP [7]; MC903 topically every day on right ear of WT mice, D2, D3, D4, ethanol on left ear
  TSLP RNA levels in treated right ear: increased in right ears, and further increased on D3 and D4
TSLP [7]; MC903 topically on ears, D5
  TSLP transcripts in other organs (lung, thymus, salivary gland, tongue, colon, spleen, lymph node, liver): no increase
